From patent US9474790B2, “Stable, protracted GLP-1/glucagon receptor co-agonists for medical use” (Novo Nordisk A/S, priority 2013, dated 2016) come the findings set out here.

The nature of series [1]: in vivo. Set-up: species or system c57/BL6 mice. Conditions: male, c57/BL6, mouse, sc, 10 nmol/kg. As to the method:
The purpose of this assay was to assess the pharmocokinetic profiles of the glucagon derivatives of the invention in mice. The pharmacokinetic profile of glucagon-GLP1 co-agonists was tested in normal male c57/BL6 mice (approximately body weight: 30 grams), in a sparse sampling design with for example 3 mice represented at each time point (for example: t=0.25, 0.5, 1, 3, 6, 10, 24, 30 and 48 hours). The compound was dosed as a single subcutaneous dose of 10 nmol/kg at t=0. The plasma levels of the glucagon-GLP1 co-agonist compounds were determined using an ELISA/LOCI assay (see Example 80 herein). Pharmacokinetic calculations such as half-life (T1/2) maximum concentration (Cmax) and time for maximum concentration (Tmax) of the compounds were determined using the PC based software, Phoenix (WinNonLin version 6.3 from Pharsight, Certara). Samples were analysed for peptide levels using Luminescence Oxygen Channeling Immunoassay (LOCI). The donor beads were coated with streptavidin. Acceptor beads are conjugated with a monoclonal antibody specific to gGlu in the linker (NN454-1F31) while the second monoclonal antibody (1F120) specific for glucagon was biotinylated. Three reactants were combined with the analyte and formed a two-sited immuno-complex. Illumination of the complex released singlet oxygen atoms from the donor beads. They were channeled into the acceptor beads and triggered chemiluminescence which was measured in the EnVision plate reader. The amount of emitted light is proportional to the concentration of peptide. One μL sample/calibrator/control was applied to the wells of 384-well LOCI plates followed by a 15 μL mixture of the antibody-coated acceptor beads (0.5 μg/well) and the biotinylated antibody. The plates were incubated over night at 21-22° C. Following incubation, 30 μL of the streptavidin-coated donorbeads (2 μg/well) was added to each well and incubated for 30 minutes at 21-22° C. The plates were read in an Envision plate reader at 21-22° C. with a filter having a bandwidth of 520-645 nm after excitation by a 680 nm laser. The total measurement time per well was 210 ms including a 70 ms excitation time.

In series [2] the target is T1, human glucagon receptor (Homo sapiens, UniProt P47871).
T1 construct: expressed in transfected cells; host or cells: BHK cells (parent BHK570, CRE luciferase clone BHK/KZ10-20-48), clone pLJ6'-4-25
Briefly: Glucagon receptor potency, CRE luciferase reporter gene assay in BHK cells. It counts as cell-based. Conditions: BHK cells expressing human glucagon receptor, read-out: EC50 GlucR. A digest of the protocol:
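Stably transfected BHK cells (BHK570 background) expressing human glucagon receptor with CRE-firefly luciferase reporter, 5×10EE3 cells/well in DMEM/HEPES with 2% ovalbumin and 0.2% Pluronic F-68. Compounds 1×10EE-13 to 1×10EE-6 M final, 3 h at 37 °C; luminescence read, EC50 from four-parameter fit, in pM.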

Numbered stars: 1 amine (or outer) side, 2 acyl side, 3 side chain; on linkers, the order of the positions; unused ones are H or OH. Square brackets hold non-standard residues; d marks the D form. Side chains are listed from the residue outwards. Peptide text beside a SMILES is read from it. * marks the point of attachment. C18 diacid = O=C(O)CCCCCCCCCCCCCCCCC(=O)*; γGlu = O=C(O)[C@H](CCC(=O)[*:2])N[*:1]; Ac4c = NC1(C(=O)O)CCC1; AEEA = NCCOCCOCC(=O)O; Aib = CC(C)(N)C(=O)O

T1 sequence (P47871 26-477): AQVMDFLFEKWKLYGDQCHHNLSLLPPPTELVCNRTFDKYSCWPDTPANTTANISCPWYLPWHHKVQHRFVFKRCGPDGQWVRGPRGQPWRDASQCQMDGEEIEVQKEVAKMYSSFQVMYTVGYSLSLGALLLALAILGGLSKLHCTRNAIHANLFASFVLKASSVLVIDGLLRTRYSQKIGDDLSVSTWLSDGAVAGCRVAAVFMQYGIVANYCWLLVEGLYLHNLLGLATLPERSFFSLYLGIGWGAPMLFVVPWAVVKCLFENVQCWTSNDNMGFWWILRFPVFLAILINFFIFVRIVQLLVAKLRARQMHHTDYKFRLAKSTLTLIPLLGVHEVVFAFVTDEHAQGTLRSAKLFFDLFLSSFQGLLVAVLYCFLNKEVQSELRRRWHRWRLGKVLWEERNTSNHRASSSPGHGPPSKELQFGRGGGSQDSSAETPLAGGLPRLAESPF

Regarding `CC(C)C[C@H](NC(=O)[C@H](CC(C)C)NC(=O)[C@H](Cc1c[nH]c2ccccc12)NC(=O)[C@H](CCC(N)=O)NC(=O)[C@@H](NC(=O)[C@H](Cc1ccccc1)NC(=O)[C@H](CCC(=O)O)NC(=O)[C@H](CCC(N)=O)NC(=O)[C@H](C)NC(=O)[C@H](C)NC(=O)[C@H](CCCCN)NC(=O)[C@H](CO)NC(=O)[C@H](CC(=O)O)NC(=O)[C@H](CC(C)C)NC(=O)[C@H](Cc1ccc(O)cc1)NC(=O)[C@H](CCCCN)NC(=O)[C@H](CO)NC(=O)[C@H](CC(C)C)NC(=O)[C@H](CC(=O)O)NC(=O)[C@H](CO)NC(=O)[C@@H](NC(=O)[C@H](Cc1ccccc1)NC(=O)[C@@H](NC(=O)CNC(=O)[C@H](CCC(N)=O)NC(=O)C(C)(C)NC(=O)[C@@H](N)Cc1c[nH]cn1)[C@@H](C)O)[C@@H](C)O)C(C)C)C(=O)N[C@@H](CC(N)=O)C(=O)N[C@@H](CCCCNC(=O)CC[C@H](NC(=O)CC[C@H](NC(=O)COCCOCCNC(=O)COCCOCCNC(=O)CC[C@H](NC(=O)CCCCCCCCCCCCCCCCC(=O)O)C(=O)O)C(=O)O)C(=O)O)C(N)=O` [Example 8, N^ε29-[(4S)-4-carboxy-4-[[(4S)-4-carboxy-4-[[2-[2-[2-[[2-[2-[2-[[(4S)-4-carboxy-4-(17-carboxyheptadecanoylamino)butanoyl]amino]ethoxy]ethoxy]acetyl]amino]ethoxy]ethoxy]acetyl]amino]butanoyl]amino]butanoyl]-[Aib2,Leu10,Lys17,Ala18,Glu21,Leu27,Lys29]-Glucagon amide] (H-H[Aib]QGTFTSDLSKYLDSKAAQEFVQWLLNK([γGlu-γGlu-AEEA-AEEA-γGlu-C18 diacid])-NH2; N-terminus assumed), in series [1], the highest level (Cmax) was 45 nM, the Tmax came out at 3 h and the half-life is 23 h.
Take `CC(C)C[C@H](NC(=O)[C@H](CC(C)C)NC(=O)[C@H](Cc1c[nH]c2ccccc12)NC(=O)[C@H](CCC(N)=O)NC(=O)[C@@H](NC(=O)[C@H](Cc1ccccc1)NC(=O)[C@H](CCC(=O)O)NC(=O)[C@H](CCCNC(=N)N)NC(=O)[C@H](C)NC(=O)[C@H](CCCNC(=N)N)NC(=O)[C@H](CCCNC(=N)N)NC(=O)[C@H](CO)NC(=O)[C@H](CC(=O)O)NC(=O)[C@H](CC(C)C)NC(=O)[C@H](Cc1ccc(O)cc1)NC(=O)[C@H](CCCCN)NC(=O)[C@H](CO)NC(=O)[C@H](CC(C)C)NC(=O)[C@H](CC(=O)O)NC(=O)[C@H](CO)NC(=O)[C@@H](NC(=O)[C@H](Cc1ccccc1)NC(=O)[C@@H](NC(=O)CNC(=O)[C@H](CCC(N)=O)NC(=O)C(C)(C)NC(=O)[C@@H](N)Cc1c[nH]cn1)[C@@H](C)O)[C@@H](C)O)C(C)C)C(=O)N[C@@H](CC(N)=O)C(=O)N[C@@H](CCCCNC(=O)CC[C@H](NC(=O)CC[C@H](NC(=O)COCCOCCNC(=O)COCCOCCNC(=O)CC[C@H](NC(=O)CCCCCCCCCCCCCCCCC(=O)O)C(=O)O)C(=O)O)C(=O)O)C(N)=O` [Example 12, N^ε29-[(4S)-4-carboxy-4-[[(4S)-4-carboxy-4-[[2-[2-[2-[[2-[2-[2-[[(4S)-4-carboxy-4-(17-carboxyheptadecanoylamino)butanoyl]amino]ethoxy]ethoxy]acetyl]amino]ethoxy]ethoxy]acetyl]amino]butanoyl]amino]butanoyl]-[Aib2,Leu10,Arg20,Glu21,Leu27,Lys29]-Glucagon amide] (H-H[Aib]QGTFTSDLSKYLDSRRAREFVQWLLNK([γGlu-γGlu-AEEA-AEEA-γGlu-C18 diacid])-NH2): in series [1], the concentration peaked (Cmax) at 24.4 nM, the Tmax came to 3 h and the half-life was 14 h.
Take `CC(C)C[C@H](NC(=O)[C@H](Cc1ccc(O)cc1)NC(=O)[C@H](CCCCN)NC(=O)[C@H](CO)NC(=O)[C@H](CC(C)C)NC(=O)[C@H](CC(=O)O)NC(=O)[C@H](CO)NC(=O)[C@@H](NC(=O)[C@H](Cc1ccccc1)NC(=O)[C@@H](NC(=O)CNC(=O)[C@H](CCC(N)=O)NC(=O)C(C)(C)NC(=O)[C@@H](N)Cc1c[nH]cn1)[C@@H](C)O)[C@@H](C)O)C(=O)N[C@@H](CCC(=O)O)C(=O)N[C@@H](CO)C(=O)N[C@@H](CCCNC(=N)N)C(=O)N[C@@H](CCCNC(=N)N)C(=O)N[C@@H](C)C(=O)N[C@@H](CCCNC(=N)N)C(=O)N[C@@H](CCC(=O)O)C(=O)N[C@@H](Cc1ccccc1)C(=O)N[C@H](C(=O)N[C@@H](CCC(N)=O)C(=O)N[C@@H](Cc1c[nH]c2ccccc12)C(=O)N[C@@H](CC(C)C)C(=O)N[C@@H](CC(C)C)C(=O)N[C@@H](CCCCNC(=O)CC[C@H](NC(=O)CC[C@H](NC(=O)[C@H](CO)NC(=O)[C@H](CCC(=O)O)NC(=O)[C@H](CO)NC(=O)CC[C@H](NC(=O)CC[C@H](NC(=O)CCCCCCCCCCCCCCCCC(=O)O)C(=O)O)C(=O)O)C(=O)O)C(=O)O)C(=O)N[C@H](C(N)=O)[C@@H](C)O)C(C)C` [Example 67, N^ε28-[(4S)-4-carboxy-4-[[(4S)-4-carboxy-4-[[(2S)-2-[[(2S)-4-carboxy-2-[[(2S)-2-[[(4S)-4-carboxy-4-[[(4S)-4-carboxy-4-(17-carboxyheptadecanoylamino)butanoyl]amino]butanoyl]amino]-3-hydroxypropanoyl]amino]butanoyl]amino]-3-hydroxypropanoyl]amino]butanoyl]amino]butanoyl]-[Aib2,Leu10,Glu15,Arg20,Glu21,Leu27,Lys28]-Glucagon amide] (H-H[Aib]QGTFTSDLSKYLESRRAREFVQWLLK([γGlu-γGlu-Ser-Glu-Ser-γGlu-γGlu-C18 diacid])T-NH2; N-terminus assumed): in series [2], the EC50 was 10 pM.
As to `CC(C)C[C@H](NC(=O)[C@H](Cc1ccc(O)cc1)NC(=O)[C@H](CCCCN)NC(=O)[C@H](CO)NC(=O)[C@H](CC(C)C)NC(=O)[C@H](CC(=O)O)NC(=O)[C@H](CO)NC(=O)[C@@H](NC(=O)[C@H](Cc1ccccc1)NC(=O)[C@@H](NC(=O)CNC(=O)[C@H](CCC(N)=O)NC(=O)C1(NC(=O)[C@@H](N)Cc2c[nH]cn2)CCC1)[C@@H](C)O)[C@@H](C)O)C(=O)N[C@@H](CCC(=O)O)C(=O)N[C@@H](CO)C(=O)N[C@@H](CCCCN)C(=O)N[C@@H](CCCNC(=N)N)C(=O)N[C@@H](C)C(=O)N[C@@H](CCCNC(=N)N)C(=O)N[C@@H](CCC(=O)O)C(=O)N[C@@H](Cc1ccccc1)C(=O)N[C@H](C(=O)N[C@@H](CCC(N)=O)C(=O)N[C@@H](Cc1c[nH]c2ccccc12)C(=O)N[C@@H](CC(C)C)C(=O)N[C@@H](CC(C)C)C(=O)N[C@@H](CCCCNC(=O)CC[C@H](NC(=O)CC[C@H](NC(=O)[C@H](CO)NC(=O)[C@H](CCC(=O)O)NC(=O)[C@H](CO)NC(=O)CC[C@H](NC(=O)CC[C@H](NC(=O)CCCCCCCCCCCCCCCCC(=O)O)C(=O)O)C(=O)O)C(=O)O)C(=O)O)C(=O)N[C@H](C(N)=O)[C@@H](C)O)C(C)C` [Example 68, N^ε28-[(4S)-4-carboxy-4-[[(4S)-4-carboxy-4-[[(2S)-2-[[(2S)-4-carboxy-2-[[(2S)-2-[[(4S)-4-carboxy-4-[[(4S)-4-carboxy-4-(17-carboxyheptadecanoylamino)butanoyl]amino]butanoyl]amino]-3-hydroxypropanoyl]amino]butanoyl]amino]-3-hydroxypropanoyl]amino]butanoyl]amino]butanoyl]-[Acb2,Leu10,Glu15,Lys17,Arg20,Glu21,Leu27,Lys28]-Glucagon amide] (H-H[Ac4c]QGTFTSDLSKYLESKRAREFVQWLLK([γGlu-γGlu-Ser-Glu-Ser-γGlu-γGlu-C18 diacid])T-NH2; N-terminus assumed), the EC50 in series [2] was determined as 5 pM.
